Key:
[1] = tested on: platelet aggregation induced by collagen; test: Platelet aggregation tests (collagen-induced, Born photometric method); type: cell-based, human (healthy volunteers); settings: 10 minutes' incubation
Protocol: Blood samples taken from healthy volunteers were used for these tests.
The blood samples were treated with sodium citrate and centrifuged for 8 minutes at 100 rpm. The number of platelets was counted and brought to a fixed level of […] by adding platelet poor plasma (PPP) where necessary.
Platelet aggregation was induced using collagen (2.5 μg/ml, 5 μg/ml) as the aggregating agent and determined photometrically according to the method described by Born (Born G. V. R., Nature, 194, 927, 1962).
Platelet aggregation was measured in baseline conditions and after 10 minutes' incubation with quercetin or propionyl L-carnitine or with a combination of quercetin and propionyl L-carnitine in the same amounts.
The propionyl L-carnitine doses were 10 μg and 20 μg/ml, while the quercetin doses were 0.1 μg and 0.25 μg/ml.

[2] = tested on: experimental atherosclerosis in rabbits; test: Antiatherosclerotic activity tests: biochemical and histological parameters, arteriosclerotic lesions of heart and aorta; type: in vivo, New Zealand rabbits; settings: rabbit, cholesterol-enriched diet, thirty days; carnitine(s) 400 mg/kg, quercetin 50 mg/kg
Protocol: (§1) In these tests, experimental atherosclerosis was induced in rabbits by administering 0.5% of cholesterol by weight together with the standard diet.
(§2) The liver was then removed from each animal and used to assay total cholesterol and triglycerides according to the method of Dehoff (Dehoff J. L., Clin. Chem., 24, 433, 1978) and Levy (Levy A., Advances in Automated Analysis, 497—Thurman—Miami, 1972). Arteriosclerotic lesions at the level of the heart and aorta were assessed according to the Klurfield method (Klurfield D. M., J. Med., 10, 35, 1979), grading them from I to IV according to the severity of the damage detected.
The greatest degree of protective activity, however, is that achieved when carnitine and quercetin are administered in combination.

[3] = tested on: hypercholesterolaemic rabbits; test: Antiatherosclerotic activity tests: liver total cholesterol and triglycerides; type: in vivo, New Zealand rabbits; settings: thirty days, carnitine(s) 400 mg/kg, quercetin 50 mg/kg
Protocol: as §2, with “497-Thurman-Miami,” for “497—Thurman—Miami,”, “([…].” for “(Klurfield D. M., J.”

[4] = tested on: anaphylactic shock in guinea-pigs; test: Anaphylactic shock tests (horse serum sensitisation); type: in vivo; settings: oral; for Surviving/treated animals: carnitine(s) 300 mg/kg, quercetin 50 mg/kg
Protocol: These tests were performed using male albino guinea-pigs with a mean weight of 300 g; the animals received intraperitoneal injections of 1 cc of horse serum diluted 1:10.
After twenty-five days, intravenous injection of 1 cc of horse serum triggered anaphylactic shock with onset of bronchospasm and death of the animals. Five days before the shock-triggering injection, the sensitised animals were treated orally either with propionyl L-carnitine (300 mg/kg), or with carnitine mixture (300 mg/kg), or with quercetin (50 mg/kg), or with various combinations of these compounds.

[5] = tested on: hypercholesterolaemic rabbits; test: Antiatherosclerotic activity tests: plasma lipoprotein concentrations; type: in vivo, New Zealand rabbits; settings: thirty days, carnitine(s) 400 mg/kg, quercetin 50 mg/kg
Source text: as §1
After thirty days' treatment, a blood sample was taken from the central artery of the ear in each animal and used to assay the lipoproteins present according to the method described by Hatch (Hatch F. T., Advan. Lipid Res., 6, 1, 1968).

[6] = tested on: mice treated with mitomycin C; test: Tests on leukopenia induced by mitomycin C; type: in vivo; settings: for Number of leukocytes after 5 days / Number of leukocytes after 10 days / Number of leukocytes after 12 days / protective effect against leukopenia and toxicity of mitomycin C (in words): mice; for Number of leukocytes after 5 days / Number of leukocytes after 10 days / Number of leukocytes after 12 days / % Mice surviving after 5 days / % Mice surviving after 10 days / % Mice surviving after 12 days: mitomycin C 50 μg/mouse i.p. five days, oral carnitine(s) 300 mg/kg, quercetin 100 mg/kg; for protective effect against leukopenia and toxicity of mitomycin C (in words): oral
Protocol: To evaluate the immunostimulatory effect of the combination of propionyl L-carnitine or carnitine mixture plus quercetin, the effect of these products was evaluated on the toxic and immunosuppressive activity induced by mitomycin C.

[7] = tested on: oedema induced in the rat paw by carrageenin; test: Anti-inflammatory activity tests: carrageenin-induced oedema of the rat paw; type: in vivo; settings: for anti-oedema / anti-inflammatory effect (in words): rat paw, carrageenin
Protocol: To this end, 0.1 cc of a 1% carrageenin solution (Sigma, St, Louis, USA) were injected in the subplantar zone of the rat paw. The volume of oedema of the paw was measured by means of a mercury plethysmograph at intervals of one hour over the four-hour period following injection of carrageenin. One hour prior to injection, of carrageenin the animals received oral administrations either of propionyl L-carnitine (300 mg/kg and 150 mg/kg), or carnitine mixture (acetyl L-carnitine, propionyl L-carnitine, isovaleryl L-carnitine; 300 mg/kg and 150 mg/kg), or quercetin (100 mg/kg and 50 mg/kg), or various combinations of these compounds.

[8] = Toxicology, single oral administration in the rat; settings: up to 4 g/kg
[9] = rat, oral, carnitine(s) 300 mg/kg and/or quercetin 100 mg/kg
[10] = rat, oral, carnitine(s) 150 mg/kg and/or quercetin 50 mg/kg

| SMILES | biochemical and histological parameters of experimentally induced atherosclerosis [2] | Liver triglycerides [3] [mg/g] | protection against death by anaphylactic shock (in words) [4] | Surviving/treated animals [4] | Plasma HDL [5] [mg/dL] | Plasma LDL [5] [mg/dL] | Plasma VLDL [5] [mg/dL] | Number of leukocytes after 5 days [6] | Number of leukocytes after 10 days [6] | Number of leukocytes after 12 days [6] | protective effect against leukopenia and toxicity of mitomycin C (in words) [6] | % Mice surviving after 5 days [6] [%] | % Mice surviving after 10 days [6] [%] | % Mice surviving after 12 days [6] [%] | anti-oedema / anti-inflammatory effect (in words) [7] | % reduction of carrageenin-induced oedema after 1 h [7, 9] [%] | % reduction of carrageenin-induced oedema after 2 h [7, 9] [%] | % reduction of carrageenin-induced oedema after 3 h [7, 9] [%] | also measured |
| --- | --- | --- | --- | --- | --- | --- | --- | --- | --- | --- | --- | --- | --- | --- | --- | --- | --- | --- | --- |
| CCC(=O)O[C@H](CC(=O)[O-])C[N+](C)(C)C [Propionyl L-carnitine, propionyl L-carnitine] | capable of reducing | 165 ± 14.5 | no protective effect | 2/10 | 26.4 ± 3.9 | 380 ± 21.5 | 855 ± 32.5 | 6,000 ± 310 | 5,400 ± 280 | 2,100 ± 125 | modest | 60 | 45 | 30 | modest anti-oedema effect | 12 ± 0.1 | 10 ± 0.2 | 6 ± 0.5 | modification of platelet aggregating action induced by collagen ([1]; propionyl L-carnitine 10 μg and 20 μg/ml): did not prove capable of modifying; signs of toxicity [8]: without any signs of toxicity |
| O=c1c(O)c(-c2ccc(O)c(O)c2)oc2cc(O)cc(O)c12 [Quercetin, quercetin] | good inhibitory activity | 130 ± 14.5 | no protective effect | 3/10 | 28.6 ± 3.8 | 298 ± 30.1 | 816 ± 37.5 | 5,600 ± 480 | 4,800 ± 410 | 2,800 ± 310 | modest | 70 | 30 | 30 | modest anti-oedema effect | 18 ± 1.2 | 22 ± 2.5 | 20 ± 19 | reduction of collagen-induced platelet aggregation ([1]; quercetin 0.25 μg): 50%; % reduction of carrageenin-induced oedema after 1 h [7, 10]: 8 ± 0.6%; % reduction of carrageenin-induced oedema after 2 h [7, 10]: 10 ± 0.2%; % reduction of carrageenin-induced oedema after 4 h [7, 9]: 18 ± 1.5% |

— US20030206895A1, “Antioxidant composition comprising propionyl L-carnitine and a flavonoid against throm-bosis and atherosclerosis” (priority 1998, published 2003)
